Test results from patent publication US4585866A, “Treatment of migraine with substituted tropyl benzoate derivatives” (Merrell Dow Pharmaceuticals Inc., priority 1984, dated 1986).
Read-outs that look alike come from different tables or passages of the source.

Tests used:
[1] = target: T1, rabbit heart (5-HT M receptor) (Oryctolagus cuniculus, UniProt A0A5F9C9J3); experiment: Inhibition of standard response to 5-HT, rabbit heart; format: cell-based
T1 construct: RABBIT HEART; from tissue; host or cells: rabbit heart
T1 sequence (A0A5F9C9J3 1-494): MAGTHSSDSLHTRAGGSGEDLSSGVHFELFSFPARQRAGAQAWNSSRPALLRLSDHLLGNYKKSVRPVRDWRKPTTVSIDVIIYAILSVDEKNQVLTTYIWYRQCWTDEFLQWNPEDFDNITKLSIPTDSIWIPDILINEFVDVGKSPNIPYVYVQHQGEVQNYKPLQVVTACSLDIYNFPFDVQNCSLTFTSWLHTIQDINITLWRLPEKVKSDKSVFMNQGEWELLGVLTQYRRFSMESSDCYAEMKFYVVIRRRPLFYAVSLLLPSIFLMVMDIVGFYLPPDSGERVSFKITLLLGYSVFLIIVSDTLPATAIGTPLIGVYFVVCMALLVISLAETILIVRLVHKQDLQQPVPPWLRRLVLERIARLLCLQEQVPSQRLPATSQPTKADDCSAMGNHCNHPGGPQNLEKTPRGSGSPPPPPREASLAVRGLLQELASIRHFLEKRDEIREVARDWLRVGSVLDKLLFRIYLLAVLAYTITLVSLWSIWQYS
Experimental: (§1) The activity of the compounds against 5-HT can be assessed by determining their pA2 values in the isolated rabbit heart as described by J. R. Fozard et al, Eur. J. Pharmacol., 59, 195-210 (1979). In the method described, the molar concentration of antagonist which reduces the effects of twice the ED50 of 5-HT to that of the ED50 in the absence of antagonist is determined. The pA2 value is the negative logarithm of said molar concentrations.
(§2) A selection of classical in vitro pharmacological test preparations (rat uterus, rat fundus, guinea-pig ileum, guinea-pig taenia caeci) were set up according to well-established procedures (see "Pharmacological Experiments on Isolated Preparations" Staff of the Department of Pharmacology, University of Edinburgh, Livingstone, Edinburgh 1970). Various spasmogens were used to elicit contraction of these tissues though mechanisms other than the 5-HT "M" receptor. The concentrations of tropyl 3,5-dimethoxybenzoate (A), tropyl 3,5-dimethylbenzoate (B) and tropyl 3,5-dichlorobenzoate (C) which reduced the effects of a submaximal dose of agonist by 50% were determined (IC50). The results are set forth in Table VI below in which the compounds are identified by the reference letters used above.

rat uterus [2] = experiment: Inhibition of standard response to 5-HT, rat uterus; format: cell-based; details: agonist 5-HT, read-out: Concentration to inhibit standard response to stimulants by 50% (IC50)
Source text: as §2

[3] = test system: Von Bezold-Jarisch Reflex (5-HT M-receptor); experiment: Antagonism of the Von Bezold-Jarisch reflex evoked by 5-HT in the anaesthetized rat; format: in vivo, rat (male Sprague-Dawley); details: comparison in words, i.v.
Source text: The activity of these compounds against 5-HT can be assessed in vivo by measurement of the effect of the compound on the Von Bezold-Jarisch Reflex induced by 5-HT injected intravenously into the rat (A. S. Paintal, Physiol. Rev. 53, 159-227, 1973). The transient caridac slowing arises from an increased afferent vagus activity arising from stimulation by 5-HT of sensory afferent fibres in and around the heart (see Example 3).
Antagonism of the Von Bezold-Jarisch reflex evoked by 5-HT in the anaesthetized rat was measured for tropyl 3,5-dimethoxybenzoate (A), tropyl 3,5-dimethylbenzoate (B) and tropyl 3,5-dichlorobenzoate (C) using the following method.
Male Sprague-Dawley rats weighing 250-300 g are anaesthetized with urethane, 1.25 g/kg injected intraperitoneally and set up for recording blood pressure and heart rate as described in J. R. Fozard et al, J. Cardiovas. Pharmacol. 2, 229-245 (1980). A submaximal dose of 5-HT ([…]) is given repeatedly into the cannulated jugular vein and changes in heart rate are quantified. Antagonists are given intravenously and the doses required to just inhibit the response to 5-HT (threshold dose) or to inhibit the response to 5-HT by 50% (ED50) are determined.

rat fundus [4] = experiment: Inhibition of standard response to 5-HT, rat fundus; format: cell-based; details: agonist 5-HT, read-out: Concentration to inhibit standard response to stimulants by 50% (IC50)
Source text: as §2

guinea-pig taenia caeci = experiment: Inhibition of standard response to calcium, guinea-pig taenia caeci; format: cell-based; details: Cavia porcellus; guinea-pig taenia caeci in potassium-depolarized Tyrode solution, agonist calcium; read-out: Concentration to inhibit standard response to stimulants by 50% (IC50)
Source text: as §2
*In potassiumdepolarized Tyrode solution

rat fundus [5] = experiment: Inhibition of standard response to acetylcholine, rat fundus; format: cell-based; details: agonist acetylcholine, read-out: Concentration to inhibit standard response to stimulants by 50% (IC50)
Source text: as §2

rat uterus [6] = experiment: Inhibition of standard response to oxytocin, rat uterus; format: cell-based; details: agonist oxytocin, read-out: Concentration to inhibit standard response to stimulants by 50% (IC50)
Source text: as §2

5-HT M-receptor [7] = target: T2, 5-HT M-receptor (Oryctolagus cuniculus, UniProt A0A5F9C9J3); experiment: pA2 against 5-HT in isolated rabbit heart; format: cell-based
T2 construct: determining their pA2 values in the isolated rabbit heart; from tissue; host or cells: isolated rabbit heart (receptor on the cardiac neurones)
T2 sequence (A0A5F9C9J3 1-494): T1 sequence (A0A5F9C9J3 1-494)
Experimental: as §1

mouse = experiment: LD50 in the mouse; format: in vivo; details: as shown by LD50 values in the mouse and rat
LD50 in the mouse = format: in vivo; details: in vivo, mouse
guinea-pig ileum [8] = experiment: Inhibition of standard response to histamine, guinea-pig ileum; format: cell-based; details: Cavia porcellus, agonist histamine, read-out: Concentration to inhibit standard response to stimulants by 50% (IC50)
Source text: as §2

[9] = test system: migraine or cluster headaches; experiment: Pilot study of intravenous tropyl 3,5-dichlorobenzoate in patients with migraine or cluster headaches; format: in vivo
Source text: Pilot Study of Tolerance To Intravenous Tropyl 3,5-Dichlorobenzoate in Patients With Migraine or Cluster Headaches
This study was designed to evaluate tolerance and, if possible, efficacy of intravenous tropyl 3,5-dichlorobenzoate in patients with migraine or cluster headaches.
Eight patients (4 males), aged 27-47 with known headache disorders of 5-27 years duration (see Table VII) took part in the study but Patients Nos. 2 and 4 had cluster not migraine headaches and the cause of headaches in Patient No. 6 was unknown.
Tropyl 3,5-dichlorobenzoate was provided as a sterile solution, 1 mg/ml; the desired dose to be diluted in 10 ml normal saline for intravenous infusion over a 2 minute period. No other therapy was taken for at least 24 hours before treatment or during the course of therapy.

LD50 in the rat = details: in vivo, iv
guinea-pig ileum [10] = experiment: Inhibition of standard response to acetylcholine, guinea-pig ileum; format: cell-based; details: Cavia porcellus, agonist acetylcholine, read-out: Concentration to inhibit standard response to stimulants by 50% (IC50)
Source text: as §2

5-HT D-receptor = details: at the doses used clinically for the treatment of migraine; cited from earlier work
5-HT M-receptor [11] = target: T2, 5-HT M-receptor; details: reported by J. R. Fozard et al, Eur. J. Pharmacol. 1979 / 1978; cited from earlier work
[12] = Patient 6, i.v., after 4 mg dose
[13] = Patient 8, i.v., first day of 9 mg
[14] = isolated rabbit heart, negative log of molar concentration of antagonist reducing effect of twice the ED50 of 5-HT to that of the ED50, read-out: pA2 5-HT (converted)

SMILES: CN1[C@@H]2CC[C@H]1C[C@@H](OC(=O)c1cc(Cl)cc(Cl)c1)C2 [tropyl 3,5-dichlorobenzoate]
- IC50 [1]: 0.00082 µM
- IC50 (rat uterus [2]): 25.4 µM
- potency relative to metoclopramide [3]: many times more potent than metoclopramide
- IC50 (rat fundus [4]): > 50.9 µM
- IC50 (guinea-pig taenia caeci): 28.6 µM
- IC50 (rat fundus [5]): 12.4 µM
- IC50 (rat uterus [6]): > 50.9 µM
- Kb (5-HT M-receptor [7]): 0.000501 µM
- toxicity in words (mouse): relatively non-toxic
- LD50 (LD50 in the mouse; ip): 32 mg/kg
- LD50 (LD50 in the mouse; iv): 24 mg/kg
- LD50 (LD50 in the mouse; oral): 90 mg/kg
- IC50 (guinea-pig ileum [8]): 3.68 µM
- response ([9]; Patient 1, i.v. 1 mg, then 1 hour later, 2 mg): no effect on headache or nausea
- response ([9]; Patient 2 (cluster headache), i.v. 1 mg): no effect
- response ([9]; Patient 3, i.v. 3 mg): no effect
- response ([9]; Patient 4 (cluster headache), i.v. 3 mg): no effect
- response ([9]; Patient 5, i.v. 5 mg): no effect
- period over which reduction in headache intensity lasted ([9]; Patient 6, i.v.): 21/2
- headache reduction ([9]; Patient 6, i.v. 3 mg single doses): slight reduction in their bilateral headache
- headache reduction ([9]; Patient 6, i.v. 4 mg bid): further amelioration
- response with increased doses ([9]; Patient 6, i.v. 5 mg bid × 2 days, then 6 mg bid × 11 days): no greater effect
- duration of reduction of pain intensity [9, 12]: 4 to 8 h
- onset of reduction of pain intensity [9, 12]: ≤ 30 min
- reduction of pain intensity ([9]; Patient 6, i.v., within 30 minutes after 4 mg dose): 70-80%
- response ([9]; Patient 7, i.v. 3 mg × 1 day, 5 mg × 2 days, 7 mg × 1 day): no effect
- return of headache to pretreatment intensity after stopping therapy ([9]; Patient 8, after stopping i.v. therapy): 6 to 7 days
- reduction of pain ([9]; Patient 8, i.v. 3 mg): about 30%
- response during increasing doses ([9]; Patient 8, i.v. 6 mg × 1 day, 7 mg × 2 days, 9 mg × 1 day): maintained during increasing doses
- episode of pain, nausea, vomiting and photophobia [9, 13]: single episode of pain
- symptom return during treatment [9, 13]: single episode of symptom return
- symptoms (headache, nausea, vomiting, vertigo, photophobia) ([9]; Patient 8, i.v., first dose of 3 mg): decrease in all symptoms
- tolerance of initial dose ([9]; i.v., initial dose 1 mg): well tolerated
- cumulative dose well tolerated ([9]; i.v., over 18 days): ≤ 177 mg
- dose administered without any signs of intolerance, daily ([9]; i.v., patients): ≤ 14 mg/day
- dose well tolerated, repeated doses ([9]; i.v., repeated doses, patients with headaches): up to 7 mg b.i.d.
- number of patients responding to repeated doses ([9]; repeated i.v. doses, marked diminution of headache and associated symptoms, of three patients): two of the three patients
- headache and associated symptoms ([9]; repeated i.v. doses, two of the three patients (Patients Nos. 6 and 8)): marked diminution of headache and associated symptoms
- pain intensity and associated symptoms ([9]; some patients, i.v. doses of 3 mg or greater): pain intensity and associated symptoms were ameliorated
- LD50 (LD50 in the rat): 14 mg/kg
- IC50 (guinea-pig ileum [10]): 8.05 µM

SMILES: COc1cc(C(=O)O[C@H]2C[C@H]3CC[C@@H](C2)N3C)cc(OC)c1OC [tropyl 3,4,5-trimethoxybenzoate]
- Kb (5-HT M-receptor [7]; [14]): 0.00316 µM

SMILES: CN(C)CCCN1c2ccccc2Sc2ccc(Cl)cc21 [chlorpromazine]
- 5-HT D-receptor antagonism (5-HT D-receptor): 5-HT D-receptor antagonists

SMILES: Cc1ccc(C(=O)O[C@H]2C[C@H]3CC[C@@H](C2)N3C)cc1 [tropyl 4-methylbenzoate, reference compound]
- Kb (5-HT M-receptor [7]; [14]): 0.0158 µM

SMILES: CN1[C@@H]2CC[C@H]1C[C@@H](OC(=O)c1ccc(Cl)cc1)C2 [tropyl 4-chlorobenzoate, reference compound]
- Kb (5-HT M-receptor [7]; [14]): 0.1 µM

SMILES: Cc1cccc(C(=O)O[C@H]2C[C@H]3CC[C@@H](C2)N3C)c1 [tropyl 3-methylbenzoate]
- Kb (5-HT M-receptor [7]; [14]): 0.00631 µM

SMILES: CN(C)CCC=C1c2ccccc2CCc2ccccc21 [amitriptyline]
- 5-HT D-receptor antagonism (5-HT D-receptor): 5-HT D-receptor antagonists

SMILES: COC(=O)C1C2CCC(CC1OC(=O)c1ccccc1)N2 (single isomer, unassigned) [nor(-) cocaine]
- pA2 value (5-HT) (5-HT M-receptor [11]): 7.7
